From a melting point compilation (Tetko et al.; mined from patent text by program, amines drawn as free bases though some values may be those of a salt)
Residues, ends and D or L forms follow the SMILES beside them. *: point of attachment. Boc = CC(C)(C)OC(=O)*; Bn = c1ccc(C*)cc1

Row | melting point | Structure (SMILES)
1 | 38 to 42 °C | Cc1ccc(Cc2cnc(Cl)nc2OC(C)C)cn1
2 | 111 to 113 °C | O=C(c1ccc(Oc2ccccc2)c([N+](=O)[O-])c1)c1ccc(Oc2ccccc2)c([N+](=O)[O-])c1
3 | 140 to 142 °C | CC(C)(C)c1ccc(C(N)=O)cc1N
4 | 360 °C | Cc1ccc(N2CCN(c3cc4c(ncc5c4c(=O)c(C(=O)O)cn5C)c(F)c3Cl)CC2)cc1F
5 | 149 to 150 °C | CCn1nnn(-c2cc(O)c(Cl)cc2Cl)c1=O
6 | 229 to 231 °C | O=C(C(=O)N1CCN(c2cccc3[nH]ccc23)CC1)c1c[nH]c2cc(Cl)ccc12
7 | 158 to 160 °C | N#Cc1c(-c2ccc(Cl)c(Cl)c2)cc(C2CC2)nc1Cl
8 | 125 to 126 °C | CCCCCC(CC(=O)Nc1cc(CO)ccc1C(C)(C)C)c1ccc(OC)cc1OC (centres undefined)
9 | 59 to 60 °C | CN1CCc2cc3ccccc3n2CC1
10 | 242 to 244 °C | N#Cc1cc(N)ccc1NC(=O)c1ccc(N)cc1
11 | 195 to 196 °C | CC(C)Cc1nc(-c2cccnc2)c[nH]c1=O
12 | 205 °C | CC(O)c1nc2c(C(F)(F)F)cccc2c(O)c1C(=O)Nc1nccs1 (centres undefined)
13 | > 300 °C | C=CCOc1cccc(-c2c(O)c3ccc(Cl)cc3[nH]c2=O)c1
14 | 301 to 303 °C | O=C1c2ccc(=O)[nH]c2CC2CCCCC12 (centres undefined)
15 | 203 to 205 °C | CCNC(=O)c1nn(-c2ccc(Cl)cc2)c(=O)c2c(N)scc12
16 | 210 to 212 °C | Oc1c2c(c(O)c3ccccc13)CCCC2
17 | 204 to 205 °C | CN(C)CCNc1ccc(NCCN(CCO)CCO)c2c1C(=O)c1c(O)ccc(O)c1C2=O
18 | 256 °C | CCOC(=O)c1cn(C2CC2)c2nc3cc(Cl)c(F)cc3cc2c1=O
19 | 176 to 177 °C | COc1ccc(C(=O)Nc2ccccc2)cc1NC(=S)Nc1cccc(C(C)=O)c1
20 | 169 to 171 °C | Cc1ccc(C(=O)N[C@@H](COC(C)(C)C)NC(=S)Nc2cccc([N+](=O)[O-])c2)cc1
21 | 135 to 137 °C | OC(c1ccc(Cl)cc1)(c1ccc(Cl)cc1)c1cn[nH]c1
22 | 70 to 72 °C | COc1ccc(C(=O)c2cc(OC)ccc2O)cc1
23 | > 250 °C | Cc1c(O)cc(N2C(=O)c3ccccc3C2=O)cc1C(=O)O

Row | melting point | Structure (SMILES)
24 | 214 to 216 °C | CCCc1c(OCc2ccccc2C(=O)O)ccc(C(C)=O)c1O
25 | 96 to 97 °C | CCC1(CCOC2CCCCO2)C(=O)N2CC=CC(C(=O)OC)N2C1=O (centres undefined)
26 | 176 to 178 °C | CC(=O)N(c1cc2occc(=O)c2cc1Oc1ccc(F)cc1F)S(C)(=O)=O
27 | 114 to 115 °C | CC1(C)CC(c2ccccn2)c2cc(C#N)ccc2O1 (centres undefined)
28 | 110 to 112 °C | CCOC(=O)c1ccc(NCC(C)Oc2cccc3ccccc23)cc1 (centres undefined)
29 | 64 to 66 °C | CC=C(C(=O)OC)c1ccccc1CBr
30 | 165 to 167 °C | CC(C)(C)OC(=O)n1c(C#N)ccc1-c1ccc2c(c1)C(C)(C)OC(=O)N2
31 | 177 to 178 °C | CC1CC(=O)NN=C1c1ccc(NC(=O)Oc2ccc([N+](=O)[O-])cc2)cc1 (centres undefined)
32 | 93 to 94 °C | CS(=O)(=O)c1ccc(Oc2cc(OCc3cccc(Cl)n3)c3[nH]c(C4=NCC(CCO)S4)cc3c2)cc1 (centres undefined)
33 | 239 to 241 °C | O=C(Nc1ccc2cc(CN3CCCC3)cnc2c1)N1CCC(c2ccc(F)cc2)CC1
34 | 238 to 240 °C | CCC(C)(C)c1ccc(Oc2ccc(C(F)(F)F)cc2NC(=O)Nc2cc(C(F)(F)F)cc(C(F)(F)F)c2)c(C(=O)O)c1
35 | 200 to 203 °C | CN(C)C=C1C(=O)N(c2cccc(O)c2)c2ccccc21
36 | 178 to 179 °C | COc1cc(NC(=O)N[C@H]2CCCCNC2=O)c(O)c(C(C)(C)C)c1
37 | 128 to 130 °C | CCOc1cc2ncc(C#N)c(Nc3ccc4cc[nH]c4c3)c2cc1OCC
38 | 207 to 208 °C | CC1(C)OC(=O)Nc2ccc(-c3ccc(F)c(F)c3)cc21
39 | 168 to 170 °C | COc1cc2c(cc1Nc1ncc(Cl)c(N[C@@H]3[C@H](C(N)=O)[C@H]4C=C[C@@H]3C4)n1)CCOC(=O)N2C
40 | 194 to 195 °C | Cc1c(Br)sc(N2C(=O)c3ccccc3C2=O)c1C(=O)c1ccc(Cl)cc1
41 | 45 °C | Cc1coc2cc(Cl)cc(Cl)c12
42 | 130 to 131 °C | COC(=O)C(Cc1ccc(OCc2ccccc2)cc1)NC(=O)C(COCc1ccccc1)NC(=O)C(Cc1c[nH]c2ccccc12)NC(=O)OC(C)(C)C (stereo not drawn) (Boc-Trp-Ser(Bn)-Tyr(Bn)-OMe; configuration not given here)
43 | 78 °C | Cc1cccc(OC(C)C)c1S(N)(=O)=O
44 | 163 to 166 °C | CS(=O)(=O)Nc1cccc(Nc2nc(NCCO)c3nc[nH]c3n2)c1
45 | 208 to 212 °C | Cc1ccc2c(c1)[C@@]1(C)Cc3ccccc3[C@@]1(C)N2 (relative stereo)
46 | 155 to 157 °C | CN(C)C=C1CN=C(c2ccccc2Cl)c2ccccc2C1=O

Row | melting point | Structure (SMILES)
47 | 104 to 106 °C | COC(=O)C(C#N)=Cc1cccs1
48 | 233 °C | CCOC(N)=C(C#N)C#N
49 | 113 to 115 °C | CCCCCN1C(=O)C2CC2(c2ccc(N)cc2)C1=O (centres undefined)
50 | 238 to 240 °C | CC(=O)NC[C@H]1CN(c2ccc(N3CCC(O)(C(N)=O)CC3)c(F)c2)C(=O)O1
51 | 107 °C | CC12CC3CC(C)(C1)CC(NC(=O)CCl)(C3)C2
52 | 120 °C | O=C(OCc1ccccc1)c1cc(C(=O)OCc2ccccc2)[nH]n1
53 | 108 °C | CCc1nnc(-c2ccc(C)c(-c3ccc(F)cc3)n2)nc1CC
54 | 152 to 153 °C | COC(=O)COc1cc2c(c(Cl)c1Cl)C(=O)C(c1ccccc1)C2 (centres undefined)
55 | 248 to 250 °C | Cc1c(CCc2ccccc2)c(=O)oc2cc(OCc3nnn[nH]3)cc(OCc3nnn[nH]3)c12
56 | > 275 °C | COc1cccc(-n2c(-c3sc(Nc4ccccc4)nc3C)nc3ccccc3c2=O)c1
57 | 182 to 184 °C | O=C1CN(c2ccccc2)C(=O)N1C(=O)c1ccc(Cl)cc1
58 | 59.3 to 59.8 °C | CCCCCCCCCCCCCCOc1c(CBr)cccc1CBr
59 | 115 °C | CN1CCC(OC(c2ccccc2)c2nc3ccccc3s2)CC1 (centres undefined)
60 | 103 to 109 °C | COc1ccc(Br)c(/C=C/c2cc(/C=C/c3ccc4cc[nH]c4c3)[nH]n2)c1
61 | 238 to 240 °C | CCOc1ncc(C(C)=O)cc1C(=O)Nc1c(C(N)=O)nn(CC2CC2)c1CC
62 | 138 to 140 °C | CCCn1nc2c(N)nc3ccccc3c2c1CCCc1ccn(Cc2ccccc2)c1
63 | 157 to 158 °C | FC(F)(Br)C(F)(F)Oc1ccc(C2(c3ccc(OC(F)(F)C(F)(F)Br)cc3)c3ccccc3-c3ccccc32)cc1
64 | 107 to 115 °C | CCCCNC(=O)NS(=O)(=O)c1c(Cl)cccc1S(=O)(=O)N(C)C
65 | 104 to 106 °C | O=C1CCC(c2ccc(F)cc2)CC1
66 | 122 to 124 °C | COc1cc(Nc2c(C#N)cnc3cc(NCCCC4CCN(C)CC4)c(OC)cc23)c(Cl)cc1Cl
67 | 140 to 141 °C | CCOc1nc(C(=O)O)c2c(n1)nc(OCC)n2Cc1ccc(-c2ccccc2-c2nnn[nH]2)cc1
68 | 136 to 138 °C | CC(=O)Nc1ccc(F)cc1OCc1ccccc1
69 | 138 to 140 °C | Cc1ccc(N)cc1Nc1nccc(-c2cccnc2)n1

Row | melting point | Structure (SMILES)
70 | 136 to 138 °C | Cc1ccc(S(=O)(=O)NCCC(C(=O)OC(C)(C)C)C2(CC(C)C)CCN(CCc3ccccc3)C2=O)cc1 (centres undefined)
71 | 57 to 59 °C | CCCCCCCCCCCCCCCCCCOc1cc(N)cc(OCc2ccccc2)c1
72 | 186 to 188 °C | O=C1COc2cc(C(=O)N3CCOCC3)ccc2N1
73 | 137 to 138 °C | CCn1c2cc(Cl)ccc2c2oc(C(=O)Cl)cc21
74 | 140 to 158 °C | CNC(=O)c1ccccc1Nc1nc(Nc2ccc3c(c2)CCN(C(C)C)CC3)ncc1Cl
75 | 83 to 88 °C | Cc1cc2nc(C)c(S(=O)Cc3ccccc3N(C)C)nc2cc1C (centres undefined)
76 | 85 °C | CCOC(=O)C1=C(COCc2nnn(CCNc3nc(N)n[nH]3)n2)NC(C)=C(C(=O)OC)C1c1cccc(Cl)c1Cl (centres undefined)
77 | 88 °C | C#CCOc1ccc(C(=O)OC)c(OC)c1
78 | 124 to 126 °C | Cn1cc(C2=C(c3c4n(c5ccccc35)CCC(CNC(=O)OC(C)(C)C)C4)C(=O)OC2=O)c2ccccc21 (centres undefined)
79 | 203 to 205 °C | Cn1c(=O)c2cc([N+](=O)[O-])cnc2n(C)c1=O
80 | 103 to 105 °C | CCCCCCCCCCCCCCCCOc1ccc(S(N)(=O)=O)cc1N
81 | 258 to 259 °C | CNC(=O)Cn1c(-c2ccc(Br)cc2)nc2cccnc21
82 | 120 °C | C[Si](C)(C)CNc1ccc([N+](=O)[O-])cc1
83 | 178 °C | Cc1ccc2c(=O)nc(-c3cc(S(C)(=O)=O)cc(CCC(=O)OC(C)(C)C)n3)sc2c1
84 | 70 to 77 °C | CCOC(=O)c1c(O)cc(C(F)(F)F)nc1C(F)(F)F
85 | 168 to 169 °C | NC(=O)Cc1ccc(OC[C@@H]2CO2)cc1
86 | 194 to 196 °C | C#Cc1cnn2c(C3CC3)cc(-c3ccc(Cl)c(Cl)c3)nc12
87 | 226 to 228 °C | CCOC(=O)CC[C@H](NC(=O)c1ccc(N2CCN(c3c(N)nc(N)nc3CC)CC2)cc1)C(=O)OCC
88 | 171 to 172 °C | CCC1Cc2cc(OCC(=O)O)c(Cl)c(Cl)c2C1=O (centres undefined)
89 | 148 to 151 °C | CC(C)C[C@H](NC(=O)[C@H](Cc1ccccc1)NC(=O)C1CCCC1)C(=O)O
90 | 80 to 81 °C | CC(=O)c1ccc(CCNS(C)(=O)=O)cc1
91 | 162 to 163 °C | COCn1ccnc1C(O)(c1ccc(Cl)cc1)c1ccc(C(C)(C)C)cc1 (centres undefined)
92 | 134 to 136 °C | CNCCCc1nc2ccccc2[nH]1

Row | Structure (SMILES) | melting point
93 | CN1CCN(c2ccc(N)cc2F)CC1 | 89 to 91 °C
94 | CCCCCCCCCCCC(=O)c1cn(CCCC(=O)O)c2ccccc12 | 88 to 90 °C
95 | Nc1c([N+](=O)[O-])cc(O)cc1[N+](=O)[O-] | 230 °C
96 | CC(=O)OC1C(N2CCCCC2)CC2C3CCC4CCC(=O)CC4(C)C3CCC21C (centres undefined) | 165 to 167 °C
97 | CCOC(=O)c1c(C#N)nn(-c2c(Cl)cc(C(F)(F)F)cc2Cl)c1N | 202 °C
98 | CCCC12CCC3C4CCCC=C4CCC3C1CCC2=O (centres undefined) | 89 to 90 °C
99 | Cc1ccc2c3c(ccc2n1)OCC(CN1CC=C(c2c[nH]c4ccccc24)CC1)O3 (centres undefined) | 210 °C
